Patent US20220112225A1, “ANANDAMIDE COMPOUNDS” (priority 2019, published 2022)

How the values were obtained:
hMfsd2a = target: T1, hMfsd2a (Homo sapiens, UniProt Q8NA29); assay: In vitro Mfsd2a transport, thin layer chromatography (TLC) analysis; type: cell-based; details: transfected HEK293 cells, 50 μM test compound, 1 hour, iodine and cupric acetate stain
T1 construct: expressed in transfected cells; host or cells: HEK293
T1 sequence (Q8NA29 1-530 isoform Q8NA29-2): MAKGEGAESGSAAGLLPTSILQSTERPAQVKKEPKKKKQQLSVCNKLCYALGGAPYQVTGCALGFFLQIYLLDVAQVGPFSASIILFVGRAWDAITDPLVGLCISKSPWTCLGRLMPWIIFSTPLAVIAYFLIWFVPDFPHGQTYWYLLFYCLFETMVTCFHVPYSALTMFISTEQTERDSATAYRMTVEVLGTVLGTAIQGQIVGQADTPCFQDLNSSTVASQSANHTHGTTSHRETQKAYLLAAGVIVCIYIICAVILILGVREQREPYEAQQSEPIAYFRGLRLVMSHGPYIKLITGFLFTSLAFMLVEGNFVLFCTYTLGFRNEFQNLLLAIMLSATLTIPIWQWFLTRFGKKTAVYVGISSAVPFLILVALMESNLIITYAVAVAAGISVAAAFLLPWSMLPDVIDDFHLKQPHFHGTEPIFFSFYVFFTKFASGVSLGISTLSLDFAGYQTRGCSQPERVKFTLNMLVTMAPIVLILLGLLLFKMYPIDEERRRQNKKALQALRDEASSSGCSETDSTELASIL
Description: The assay was conducted in a low throughput 6-well format with HEK293 cells prepared and then transfected in duplicate wells with plasmids containing either the wildtype (WT) version of hMfsd2a, the D97A mutant version, or an empty vector as control. Uptake into the ceils was assessed by both thin-layer chromatography (TLC) and ultrahigh performance liquid chromatography hyphenated mass spectrometry.
HEK293 cells were seeded at 6.25×10^5 per 6-well in 2 mL of DMEM with 10% FBS and 1% penicillin-streptomycin (P/S) media (Sigma) and incubated overnight at 37° C. in 5% CO2. Cells were checked for confluency the next morning. On a per well basis the following lipid mix was generated, 6 μL of Lipofectamine 2000 was added dropwise to 200 μL of OptiMEM, this was left to stand for 5 minutes at room temperature (RT). 1 μg of hMfsd2a WT, D97A or empty plasmid was prepared in 200 μL of OptiMEM as appropriate for each well; the Lipofectamine 2000 in OptiMEM solution was then added dropwise to a total volume of 400 μL (this can be scaled to support the number of wells/plates to be assayed). This transfection preparation was then incubated at RT for 20 minutes. DMEM with 10% FBS and no P/S media was warmed to 37° C., the HEK293 plate media was changed and the cells washed carefully with 1 mL of the warmed DMEM with 10% FBS no P/S media, 1.6 mL of the warmed DMEM with 10% FBS no P/S media was then added to each well. 400 μL of the transfection preparation was then added dropwise to each well as appropriate and the plate was gently swirled in a circular motion. The plate was then incubated overnight at 37° C. in 5% CO2.
Compound Incubation and Preparation of Analysis Samples Compound stock solutions were prepared in a 12% BSA in PBS solution such that a 40 μL spike into 2 ml, of plain DMEM would yield a concentration of 50 μM of test compound (the compound treated media). Remaining compound stock solution in 12% BSA in PBS was frozen at −20° C. to allow for media stability testing. The HEK293 6-well plate was removed from the incubator and the wells gently rinsed with 1 mL of plain DMEM that had been prewarmed to 37° C. 2 mL of the compound treated media was then added to each well. A 100 μL sample of the compound treated media was sampled to represent a T=0 h sample; 5 μL of this sample (the remainder was reserved and frozen in case of re-analysis being required) was diluted with 45 μL of DMEM and crashed with 50 μL MeCN in a 96-well plate which was sealed and kept on ice. The HEK293 6-well plate was then incubated at 37° C. in 5% CO2 for 1 hour, the plate was then removed from the incubator and a 100 μL sample of media taken from each well to represent a T=1 h sample; 5 μL of this sample (the remainder was reserved and frozen in case of re-analysis being required) was diluted with 45 μL of DMEM and crashed with 50 μL MeCN into the 96-well plate which was re-sealed and stored at −20° C. The remaining media was then removed from the HEK293 6-well plate, the wells were gently rinsed twice with 1 mL of 0.5% BSA in DMEM, the media was then removed and the 6-well plate allowed to dry completely at RT. 1 ml of 3:2 Hexane:Isopropanol (HIP) was added to each well in a fume cupboard and the plate allowed to stand for 30 minutes at RT without shaking. The HIP solution was then transferred to 2 mL Eppendorf tubes, and the process was repeated with a second 1 mL aliquot of HIP and the two aliquots combined. The HIP samples were then dried down under a nitrogen stream.
Silica gel plates were prepared in a fume cupboard by initially drawing a line 1.5 cm from the bottom edge of the plate and then drawing sample lanes with a width of 1 cm and a separation of 0.5 cm between lanes. TLC buffer for phospholipids was prepared as a 31:62:7 solvent mix of Methanol:Chloroform:Ammonium Hydroxide. Plates were pre-run in a humid chamber containing 200 mL of the TLC buffer until the solvent front was 1.5 cm from the plate edge, the plate was then allowed to dry. […]

[1] = IV JVC rat PK study at 3 mg/kg; type: in vivo; details: male Sprague Dawley rats, 3 mg/kg IV
Description: Compound 3 was intravenously dosed at 3 mg/kg into a group of 3 individually housed, normally fed male Sprague Dawley rats that had been fitted with jugular vein catheters (JVCs). Dosing was performed with 2 mL/kg dosing volumes with 5% DMSO 95% water used as a dosing vehicle. Serial blood samples (150 μL) were taken from each animal at each time point post dose (0.08 h, 0.25 h, 0.5 h, 1 h, 2 h, 4 h, 8 h, and 24 h) into heparinised Eppendorf tubes (containing 5 μL heparin) on ice containing an equal quantity of water. Two 100 μL aliquots were then placed in duplicate 96 well plates on dry ice. Samples were stored in the freezer at −20° C. until bioanalysis.
Samples were defrosted and acetonitrile (containing internal standard) was used to precipitate the proteins. All the samples were mixed, centrifuged and the supernatants analysed by LC-MS-MS according to the following procedures: • 1. 20 μL plasma was transferred to a v-bottom 96-well plate. • 2. 80 μL acetonitrile (ACN) containing IS was added to each well. • 3. The plate was sealed and gently mixed for approximately 30 s. • 4. Plates were centrifuged for 10 min at 3500 rpm. • 5. 50 μL supernatant was transferred to a fresh v-bottom 96-well plate containing 100 μL MilliQ water.
Plates were thermo-sealed and stored at 4° C. until analysis. The resulting PK parameters are shown below in Table 1.

2-(5Z,8Z,11Z,14Z)-icosa-5,8,11,14-tetraenamidoethyl (trimethylammonio) ethylphosphate [Compound 3]
Transport via Mfsd2a: TLC band intensity in WT cells compared with D97A mutant Mfsd2a and/or empty vector cells (hMfsd2a): transported via Mfsd2a | AUC0-inf [1]: 2561.0 ng·h/mL | AUC0-t [1]: 2462.2 ng·h/mL | CI [1]: 31 mL/min/kg | Vdss [1]: 6.3 L/kg | t1/2 [1]: 7.4 h
